Laboratory results: ChEMBL document CHEMBL1157712, “Hit to lead account of the discovery of bisbenzamide and related ureidobenzamide inhibitors of Rho kinase” (J Med Chem, 2010)

Assays:
[1] = target: T1, Protein kinase C epsilon type (Homo sapiens, UniProt Q02156); assay: Inhibition of PKCepsilon
T1 sequence (Q02156 whole entry): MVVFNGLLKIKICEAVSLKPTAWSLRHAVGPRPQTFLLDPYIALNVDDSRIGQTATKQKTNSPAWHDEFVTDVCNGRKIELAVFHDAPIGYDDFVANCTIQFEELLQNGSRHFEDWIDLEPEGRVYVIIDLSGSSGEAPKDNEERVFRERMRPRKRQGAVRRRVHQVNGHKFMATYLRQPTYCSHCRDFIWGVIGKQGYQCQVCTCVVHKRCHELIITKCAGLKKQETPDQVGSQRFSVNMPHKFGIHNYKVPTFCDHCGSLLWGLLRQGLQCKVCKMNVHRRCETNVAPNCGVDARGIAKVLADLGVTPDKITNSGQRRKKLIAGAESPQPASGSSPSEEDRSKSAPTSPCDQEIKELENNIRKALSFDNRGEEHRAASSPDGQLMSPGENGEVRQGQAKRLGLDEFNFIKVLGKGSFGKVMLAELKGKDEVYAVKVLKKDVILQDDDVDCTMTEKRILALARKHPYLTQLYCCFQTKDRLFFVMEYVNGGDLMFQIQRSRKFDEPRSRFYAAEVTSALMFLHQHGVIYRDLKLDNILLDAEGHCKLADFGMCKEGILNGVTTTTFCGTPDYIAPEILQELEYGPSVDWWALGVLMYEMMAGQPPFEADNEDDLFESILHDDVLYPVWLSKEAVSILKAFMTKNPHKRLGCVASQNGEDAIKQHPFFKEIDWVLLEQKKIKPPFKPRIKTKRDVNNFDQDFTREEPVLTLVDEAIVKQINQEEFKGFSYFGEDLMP

[2] = target: Serine/threonine-protein kinase N2 (Homo sapiens, UniProt Q16513)
[3] = target: Serine/threonine-protein kinase Sgk1 (Homo sapiens) (UniProt O00141); assay: Inhibition of SGK at 3 uM relative to control; values are per cent of control
Serine/threonine-protein kinase Sgk1 (Homo sapiens), sequence (O00141 whole entry): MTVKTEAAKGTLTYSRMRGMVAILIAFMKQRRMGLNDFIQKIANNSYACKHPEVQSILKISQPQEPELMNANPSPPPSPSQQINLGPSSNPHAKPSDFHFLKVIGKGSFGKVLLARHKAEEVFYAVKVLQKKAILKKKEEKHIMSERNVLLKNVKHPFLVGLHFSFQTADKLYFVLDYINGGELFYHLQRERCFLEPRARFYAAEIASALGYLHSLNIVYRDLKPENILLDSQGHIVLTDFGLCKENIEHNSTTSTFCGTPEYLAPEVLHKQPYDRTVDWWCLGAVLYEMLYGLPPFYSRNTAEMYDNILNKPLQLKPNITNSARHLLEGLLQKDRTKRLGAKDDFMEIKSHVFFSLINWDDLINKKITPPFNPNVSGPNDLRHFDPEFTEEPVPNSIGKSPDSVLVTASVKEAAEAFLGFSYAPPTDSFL

[4] = target: Dual specificity mitogen-activated protein kinase kinase 1 (Homo sapiens) (UniProt Q02750); assay: Inhibition of MKK1 at 3 uM relative to control; values are per cent of control
[5] = target: Serine/threonine-protein kinase pim-2 (Homo sapiens, UniProt Q9P1W9); assay: Inhibition of PIM2 at 3 uM relative to control; values are per cent of control
Serine/threonine-protein kinase pim-2, sequence (Q9P1W9 whole entry, looked up): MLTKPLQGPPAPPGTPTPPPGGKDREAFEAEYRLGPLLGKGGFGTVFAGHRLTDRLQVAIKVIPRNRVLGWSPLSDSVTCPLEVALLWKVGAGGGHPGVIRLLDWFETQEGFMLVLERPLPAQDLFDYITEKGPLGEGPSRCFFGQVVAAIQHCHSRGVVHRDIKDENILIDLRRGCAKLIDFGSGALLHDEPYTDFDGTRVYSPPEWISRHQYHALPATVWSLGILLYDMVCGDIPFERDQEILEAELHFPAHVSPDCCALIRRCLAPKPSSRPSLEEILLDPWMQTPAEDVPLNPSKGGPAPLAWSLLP

[6] = target: Ribosomal protein S6 kinase beta-1 (Homo sapiens) (UniProt P23443); assay: Inhibition of S6K1 at 3 uM relative to control; values are per cent of control
Ribosomal protein S6 kinase beta-1 (Homo sapiens), sequence (P23443 whole entry, looked up): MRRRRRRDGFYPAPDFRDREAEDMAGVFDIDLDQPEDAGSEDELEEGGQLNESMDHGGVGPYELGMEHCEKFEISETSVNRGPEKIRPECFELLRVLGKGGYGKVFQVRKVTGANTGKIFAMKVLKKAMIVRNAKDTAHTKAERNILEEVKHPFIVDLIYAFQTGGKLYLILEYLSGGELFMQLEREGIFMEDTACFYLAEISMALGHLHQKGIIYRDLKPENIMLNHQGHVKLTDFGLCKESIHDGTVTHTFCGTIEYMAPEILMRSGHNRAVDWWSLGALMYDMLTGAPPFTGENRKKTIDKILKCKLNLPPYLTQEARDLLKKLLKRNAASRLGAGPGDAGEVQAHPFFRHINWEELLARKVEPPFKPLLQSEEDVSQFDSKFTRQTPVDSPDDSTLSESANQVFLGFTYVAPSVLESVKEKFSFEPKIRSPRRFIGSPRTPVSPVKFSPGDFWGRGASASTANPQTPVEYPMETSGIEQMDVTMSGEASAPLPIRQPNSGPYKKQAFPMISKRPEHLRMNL

[7] = target: Calcium/calmodulin-dependent protein kinase type 1 (Homo sapiens) (UniProt Q14012); assay: Inhibition of CAMK1 at 3 uM relative to control; values are per cent of control
[8] = target: MAP/microtubule affinity-regulating kinase 3 (Homo sapiens) (UniProt P27448); assay: Inhibition of MARK3 at 3 uM relative to control; values are per cent of control
[9] = target: Mitogen-activated protein kinase 10 (Homo sapiens) (UniProt P53779); assay: Inhibition of JNK3a1 at 3 uM relative to control; values are per cent of control
Mitogen-activated protein kinase 10 (Homo sapiens), sequence (P53779 whole entry): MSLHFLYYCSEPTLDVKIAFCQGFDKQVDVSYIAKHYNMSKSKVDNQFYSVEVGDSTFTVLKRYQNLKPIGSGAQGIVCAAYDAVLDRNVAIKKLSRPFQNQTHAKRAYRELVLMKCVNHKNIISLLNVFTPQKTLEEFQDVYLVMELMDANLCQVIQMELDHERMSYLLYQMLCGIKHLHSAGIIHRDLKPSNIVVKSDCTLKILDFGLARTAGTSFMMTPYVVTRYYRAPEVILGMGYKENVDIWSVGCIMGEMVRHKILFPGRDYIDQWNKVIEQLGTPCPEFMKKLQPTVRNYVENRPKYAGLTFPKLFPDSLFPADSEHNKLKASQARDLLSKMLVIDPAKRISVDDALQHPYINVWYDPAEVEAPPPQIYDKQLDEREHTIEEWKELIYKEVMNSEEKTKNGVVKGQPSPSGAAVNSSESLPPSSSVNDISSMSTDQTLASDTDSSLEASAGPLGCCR

[10] = Inhibition of SAPK2a at 3 uM relative to control; values are per cent of control
[11] = target: RAC-beta serine/threonine-protein kinase (Homo sapiens) (UniProt P31751); assay: Inhibition of PKBbeta at 3 uM relative to control; values are per cent of control
RAC-beta serine/threonine-protein kinase (Homo sapiens), sequence (P31751 whole entry): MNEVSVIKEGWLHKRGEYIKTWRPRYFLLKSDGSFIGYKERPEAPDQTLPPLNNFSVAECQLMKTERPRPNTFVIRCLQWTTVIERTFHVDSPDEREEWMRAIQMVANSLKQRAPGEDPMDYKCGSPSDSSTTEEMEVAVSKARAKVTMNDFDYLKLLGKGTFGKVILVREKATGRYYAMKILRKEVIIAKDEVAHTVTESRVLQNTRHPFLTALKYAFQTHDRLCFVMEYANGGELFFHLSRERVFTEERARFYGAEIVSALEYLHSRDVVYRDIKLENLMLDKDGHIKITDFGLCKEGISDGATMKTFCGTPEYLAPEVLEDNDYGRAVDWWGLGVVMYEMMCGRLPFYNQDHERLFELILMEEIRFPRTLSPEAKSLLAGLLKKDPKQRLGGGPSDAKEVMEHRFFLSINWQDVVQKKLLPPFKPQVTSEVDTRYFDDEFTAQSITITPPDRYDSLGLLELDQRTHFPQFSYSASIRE

[12] = target: Serine/threonine-protein kinase PLK1 (Homo sapiens, UniProt P53350); assay: Inhibition of PLK
Serine/threonine-protein kinase PLK1, sequence (P53350 whole entry): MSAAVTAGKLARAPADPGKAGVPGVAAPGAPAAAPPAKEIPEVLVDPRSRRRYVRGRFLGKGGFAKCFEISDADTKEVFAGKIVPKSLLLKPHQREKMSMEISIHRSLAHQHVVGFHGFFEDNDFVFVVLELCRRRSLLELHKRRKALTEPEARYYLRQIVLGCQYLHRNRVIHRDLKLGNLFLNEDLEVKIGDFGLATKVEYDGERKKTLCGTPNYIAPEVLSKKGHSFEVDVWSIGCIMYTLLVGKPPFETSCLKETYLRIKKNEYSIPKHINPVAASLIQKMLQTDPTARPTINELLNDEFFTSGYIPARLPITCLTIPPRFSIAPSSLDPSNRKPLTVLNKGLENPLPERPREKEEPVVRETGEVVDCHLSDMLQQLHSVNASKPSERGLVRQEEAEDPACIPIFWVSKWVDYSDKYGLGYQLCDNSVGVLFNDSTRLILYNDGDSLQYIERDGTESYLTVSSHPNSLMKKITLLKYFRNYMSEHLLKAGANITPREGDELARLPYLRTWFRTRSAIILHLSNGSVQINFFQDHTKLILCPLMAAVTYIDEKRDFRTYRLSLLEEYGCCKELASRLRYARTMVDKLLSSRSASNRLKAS

[13] = target: Vascular endothelial growth factor receptor 1 (Homo sapiens, UniProt P17948); assay: Inhibition of VEGFR1
Vascular endothelial growth factor receptor 1, sequence (P17948 whole entry): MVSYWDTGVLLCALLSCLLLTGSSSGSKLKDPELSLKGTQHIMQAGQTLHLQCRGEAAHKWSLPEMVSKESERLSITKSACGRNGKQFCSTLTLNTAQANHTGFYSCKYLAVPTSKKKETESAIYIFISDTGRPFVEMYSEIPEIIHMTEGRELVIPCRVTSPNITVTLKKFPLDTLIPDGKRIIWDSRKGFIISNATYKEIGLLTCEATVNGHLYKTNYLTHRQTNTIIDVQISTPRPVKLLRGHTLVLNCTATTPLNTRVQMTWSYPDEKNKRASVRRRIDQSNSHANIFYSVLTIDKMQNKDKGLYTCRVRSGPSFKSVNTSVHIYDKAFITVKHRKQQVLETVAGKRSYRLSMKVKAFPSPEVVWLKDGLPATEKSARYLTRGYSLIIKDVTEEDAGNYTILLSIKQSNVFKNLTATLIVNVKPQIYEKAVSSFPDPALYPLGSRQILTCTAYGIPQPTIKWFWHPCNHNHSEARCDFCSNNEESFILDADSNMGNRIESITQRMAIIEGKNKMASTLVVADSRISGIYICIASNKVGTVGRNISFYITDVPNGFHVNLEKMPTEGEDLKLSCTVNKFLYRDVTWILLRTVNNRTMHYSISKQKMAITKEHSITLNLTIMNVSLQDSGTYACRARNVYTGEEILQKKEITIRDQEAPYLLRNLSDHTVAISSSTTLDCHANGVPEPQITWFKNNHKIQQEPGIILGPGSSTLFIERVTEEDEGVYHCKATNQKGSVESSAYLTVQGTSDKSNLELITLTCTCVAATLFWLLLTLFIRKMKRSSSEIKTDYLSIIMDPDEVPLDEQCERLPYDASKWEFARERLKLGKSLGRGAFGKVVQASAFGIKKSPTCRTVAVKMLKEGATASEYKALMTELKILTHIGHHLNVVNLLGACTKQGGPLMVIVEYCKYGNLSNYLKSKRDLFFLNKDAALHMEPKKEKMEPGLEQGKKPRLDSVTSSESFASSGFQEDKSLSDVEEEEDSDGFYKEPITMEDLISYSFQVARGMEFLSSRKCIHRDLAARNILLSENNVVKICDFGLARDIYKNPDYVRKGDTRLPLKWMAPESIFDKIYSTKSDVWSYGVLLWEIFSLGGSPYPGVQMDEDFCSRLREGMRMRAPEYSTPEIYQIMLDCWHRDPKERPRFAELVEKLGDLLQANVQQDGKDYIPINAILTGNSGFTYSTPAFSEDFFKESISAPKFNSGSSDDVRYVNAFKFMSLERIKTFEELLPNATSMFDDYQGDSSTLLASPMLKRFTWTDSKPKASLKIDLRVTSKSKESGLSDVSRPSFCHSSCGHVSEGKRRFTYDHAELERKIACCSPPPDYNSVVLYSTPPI

[14] = Permeability from basolateral to apical side in human Caco-2 cells; type: ADME, cell-based; conditions: read-out: permeability
Cytochrome P450 1A2 = target: T2, Cytochrome P450 1A2 (Homo sapiens, UniProt P05177); assay: Inhibition of human CYP1A2 by fluorescence assay; type: ADME
T2 sequence (P05177 whole entry): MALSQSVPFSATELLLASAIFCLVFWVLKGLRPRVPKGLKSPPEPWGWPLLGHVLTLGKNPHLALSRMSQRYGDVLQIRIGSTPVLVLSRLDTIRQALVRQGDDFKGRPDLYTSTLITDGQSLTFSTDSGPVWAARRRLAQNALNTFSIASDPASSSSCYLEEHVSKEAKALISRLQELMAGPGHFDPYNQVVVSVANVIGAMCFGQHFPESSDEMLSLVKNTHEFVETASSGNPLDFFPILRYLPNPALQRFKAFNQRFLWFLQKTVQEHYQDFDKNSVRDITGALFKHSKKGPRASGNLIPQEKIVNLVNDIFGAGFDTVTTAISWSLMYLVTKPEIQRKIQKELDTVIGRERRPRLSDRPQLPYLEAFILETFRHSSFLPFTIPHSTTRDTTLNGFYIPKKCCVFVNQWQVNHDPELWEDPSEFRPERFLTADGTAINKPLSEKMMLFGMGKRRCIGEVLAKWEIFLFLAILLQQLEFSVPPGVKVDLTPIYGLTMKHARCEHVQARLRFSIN

Cytochrome P450 2C19 = Cytochrome P450 2C19 (Homo sapiens, UniProt P33261); assay: Inhibition of human CYP2C19 by fluorescence assay; type: ADME
Cytochrome P450 2C19, sequence (P33261 whole entry): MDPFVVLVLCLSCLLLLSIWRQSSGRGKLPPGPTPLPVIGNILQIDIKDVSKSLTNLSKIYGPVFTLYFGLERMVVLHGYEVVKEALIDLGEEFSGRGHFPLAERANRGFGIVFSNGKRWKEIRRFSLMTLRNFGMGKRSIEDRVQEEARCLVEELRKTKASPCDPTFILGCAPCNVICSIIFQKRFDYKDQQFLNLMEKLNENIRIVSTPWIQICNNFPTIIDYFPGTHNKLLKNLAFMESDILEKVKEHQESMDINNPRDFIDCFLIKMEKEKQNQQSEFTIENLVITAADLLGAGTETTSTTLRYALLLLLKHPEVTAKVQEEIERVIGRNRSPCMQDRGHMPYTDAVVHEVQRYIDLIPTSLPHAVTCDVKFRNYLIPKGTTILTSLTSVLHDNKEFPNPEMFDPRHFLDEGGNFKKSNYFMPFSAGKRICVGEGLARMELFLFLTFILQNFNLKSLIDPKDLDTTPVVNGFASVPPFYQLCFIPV

Rattus norvegicus = species on record: Rattus norvegicus; assay: Induction of relaxation activity of phenylephrine-induced Sprague-Dawley rat aortic ring contraction; type: functional; conditions: Aorta
[15] = target: Serine/threonine-protein kinase 3 (Homo sapiens) (UniProt Q13188); conditions: 3 to 6 uM
Description: Inhibition of MST2 at 3 to 6 uM relative to control

[16] = target: Serine/threonine-protein kinase Nek7 (Homo sapiens) (UniProt Q8TDX7); conditions: 3 to 6 uM
Description: Inhibition of NEK7 at 3 to 6 uM relative to control

[17] = target: Lymphokine-activated killer T-cell-originated protein kinase (Homo sapiens) (UniProt Q96KB5); conditions: 3 to 6 uM
Lymphokine-activated killer T-cell-originated protein kinase (Homo sapiens), sequence (Q96KB5 whole entry): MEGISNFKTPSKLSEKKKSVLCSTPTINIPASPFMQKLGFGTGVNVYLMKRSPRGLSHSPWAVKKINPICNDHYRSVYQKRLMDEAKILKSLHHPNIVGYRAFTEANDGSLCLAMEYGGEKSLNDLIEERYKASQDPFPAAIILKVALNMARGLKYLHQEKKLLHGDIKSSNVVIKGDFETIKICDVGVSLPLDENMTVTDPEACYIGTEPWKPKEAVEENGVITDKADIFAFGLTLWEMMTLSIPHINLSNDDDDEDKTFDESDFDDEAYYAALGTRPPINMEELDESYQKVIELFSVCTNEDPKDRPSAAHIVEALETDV
Description: Inhibition of PBK at 3 to 6 uM relative to control

[18] = target: RAC-beta serine/threonine-protein kinase (Homo sapiens) (UniProt P31751); conditions: 3 to 6 uM
Description: Inhibition of PKBbeta at 3 to 6 uM relative to control

[19] = target: Protein kinase C alpha type (Homo sapiens) (UniProt P17252); conditions: 3 to 6 uM
Description: Inhibition of PKCalpha at 3 to 6 uM relative to control

[20] = target: Serine/threonine-protein kinase D1 (Homo sapiens) (UniProt Q15139); conditions: 3 to 6 uM
Description: Inhibition of PKD1 at 3 to 6 uM relative to control

[21] = target: Serine/threonine-protein kinase Sgk1 (Homo sapiens) (UniProt O00141); conditions: 3 to 6 uM
Description: Inhibition of SGK at 3 to 6 uM relative to control

[22] = target: Serine/threonine-protein kinase Chk2 (Homo sapiens) (UniProt O96017); conditions: 3 to 6 uM
Description: Inhibition of CHK2 at 3 to 6 uM relative to control

Caspase-1 (Homo sapiens) = Caspase-1 (Homo sapiens) (UniProt P29466); conditions: 3 to 6 uM
Description: Inhibition of ICE at 3 to 6 uM relative to control

Compound `NC(=O)c1ccc(NC(=O)NCc2cccc(C(=O)Nc3ccc4c(c3)CNCC4)c2)cc1` has an IC50 [1] of over 5 µM, an IC50 [2] of 0.77 µM and a residual activity [3] of over 50%. The residual activity [4] was over 50%, the residual activity [5] was over 50% and the residual activity [6] was over 50%. For the same compound, the residual activity [7] was over 50%, the residual activity [8] was over 50% and the residual activity [9] was over 50%. It also gave a residual activity [10] of over 50% and a residual activity [11] of over 50%.
In the case of `COc1ccc(C(=O)NCc2cccc(C(=O)Nc3ccc4c(c3)CNCC4)c2)cc1OC`, the IC50 [12] is reported as over 10 µM, the IC50 [13] is reported as over 10 µM and the Papp B→A [14] is reported as 5.4 ×10⁻⁶ cm/s. The IC50 (Cytochrome P450 1A2) was over 30 µM, the IC50 (Cytochrome P450 2C19) was over 30 µM and the IC50 (Rattus norvegicus) was 6.4 µM. The residual activity [15] was over 50%, the residual activity [16] was over 50% and the residual activity [17] was over 50%. It also gave a residual activity [18] of over 50%, a residual activity [19] of over 50% and a residual activity [20] of over 50%. For the same compound, the residual activity [21] was over 50%, the residual activity [22] was over 50% and the residual activity (Caspase-1 (Homo sapiens)) was over 50%.
